This note sets out measurements from US9725445B2, “Cycloalkyl nitrile pyrazolo pyridones as Janus kinase inhibitors” (Merck Sharp & Dohme Corp., priority 2013, dated 2017).

In one assay the target is JAK2 (Homo sapiens (Human), UniProt O60674). In words: Jak biochemical HTRF assay, JAK2. Particulars: HTRF biochemical assay, recombinant GST-tagged catalytic domain; read-out: JAK2 IC50.
A further assay concerns the target JAK1 (Homo sapiens (Human), UniProt P23458). In words: Jak biochemical HTRF assay, JAK1. Particulars: HTRF biochemical assay, recombinant GST-tagged catalytic domain; read-out: JAK1 IC50. On the technique in general: Time-resolved FRET reads energy transfer from a long-lived donor to a nearby acceptor.

Chain of JAK1 (P23458 875-1153): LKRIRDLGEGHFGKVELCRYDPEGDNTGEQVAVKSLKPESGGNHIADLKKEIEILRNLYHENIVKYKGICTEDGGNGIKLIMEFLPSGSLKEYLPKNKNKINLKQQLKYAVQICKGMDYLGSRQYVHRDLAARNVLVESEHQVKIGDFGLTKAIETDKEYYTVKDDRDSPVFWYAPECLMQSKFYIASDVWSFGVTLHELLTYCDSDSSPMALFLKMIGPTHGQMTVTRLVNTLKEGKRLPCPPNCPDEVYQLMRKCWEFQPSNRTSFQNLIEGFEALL
Chain of JAK2 (O60674 849-1124): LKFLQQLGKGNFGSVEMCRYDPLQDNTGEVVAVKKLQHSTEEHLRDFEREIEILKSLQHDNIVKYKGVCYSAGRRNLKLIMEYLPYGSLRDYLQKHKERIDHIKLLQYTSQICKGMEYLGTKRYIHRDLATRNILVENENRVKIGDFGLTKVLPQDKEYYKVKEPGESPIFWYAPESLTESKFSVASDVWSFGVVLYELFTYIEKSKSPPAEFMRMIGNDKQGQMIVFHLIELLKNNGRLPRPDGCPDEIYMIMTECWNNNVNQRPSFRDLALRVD

For `N#C[C@H]1CCCC[C@@H]1n1nc(Nc2ccc(S(N)(=O)=O)cc2)c2c(=O)[nH]ccc21` [Example 3-7, 4-({1-[(1S,2S)-2-cyanocyclohexyl]-4-oxo-4,5-dihydro-1H-pyrazolo[4,3-c]pyridin-3-yl}amino)benzenesulfonamide], the IC50 is 0.85 nM on JAK2 and 0.11 nM on JAK1.

On to `N#C[C@H]1CCCC[C@@H]1n1nc(Nc2ccc3c(c2)CN(CC(F)(F)F)C3=O)c2c(=O)[nH]ccc21` [Example 3-10, (1S,2S)-2-(4-oxo-3-{[1-oxo-2-(2,2,2-trifluoroethyl)-2,3-dihydro-1H-isoindol-5-yl]amino}-4,5-dihydro-1H-pyrazolo[4,3-c]pyridin-1-yl)cyclohexanecarbonitrile], for which the figures for the IC50 at JAK2 and at JAK1 were 0.43 nM and 0.12 nM, respectively.

Take `Cn1ccc(NC(=O)Cc2cccc(Nc3nn([C@H]4CCCC[C@@H]4C#N)c4cc[nH]c(=O)c34)c2)n1` [Example 3-11, 2-[3-({1-[(1S,2S)-2-cyanocyclohexyl]-4-oxo-4,5-dihydro-1H-pyrazolo[4,3-c]pyridin-3-yl}amino)phenyl]-N-(1-methyl-1H-pyrazol-3-yl)acetamide]: the IC50 at JAK2 was 3.3 nM; on JAK1, 0.41 nM.

For `N#C[C@@H]1CCCC[C@H]1n1nc(Nc2cccc(CNC(=O)c3ncccn3)c2)c2c(=O)[nH]ccc21` [Example 3-14, N-[3-({1-[(1R,2R)-2-cyanocyclohexyl]-4-oxo-4,5-dihydro-1H-pyrazolo[4,3-c]pyridin-3-yl}amino)benzyl]pyrimidine-2-carboxamide], the IC50 at JAK2 was 68 nM; on JAK1, 38 nM.

For the molecule `Cn1ccc(NC(=O)Cc2cccc(Nc3nn([C@@H]4CCCC[C@H]4C#N)c4cc[nH]c(=O)c34)c2)n1` [Example 3-15, 2-[3-({1-[(1R,2R)-2-cyanocyclohexyl]-4-oxo-4,5-dihydro-1H-pyrazolo[4,3-c]pyridin-3-yl}amino)phenyl]-N-(1-methyl-1H-pyrazol-3-yl)acetamide], the IC50 at JAK2 amounted to 30 nM; at JAK1, 14 nM.

Turning to `CC(C)(C)OC(=O)NCc1cccc(Nc2nn([C@H]3CCCC[C@@H]3C#N)c3cc[nH]c(=O)c23)c1` [Example 3-16, tert-butyl [3-({1-[(1S,2S)-2-cyanocyclohexyl]-4-oxo-4,5-dihydro-1H-pyrazolo[4,3-c]pyridin-3-yl}amino)benzyl]carbamate], the IC50 on JAK2 is 3.3 nM; on JAK1 it was 1.4 nM.

Regarding `N#C[C@H]1CCCC[C@@H]1n1nc(Nc2cccc(CNC(=O)c3ncccn3)c2)c2c(=O)[nH]ccc21` [Example 3-17, N-[3-({1-[(1S,2S)-2-cyanocyclohexyl]-4-oxo-4,5-dihydro-1H-pyrazolo[4,3-c]pyridin-3-yl}amino)benzyl]pyrimidine-2-carboxamide], the values for the IC50 on JAK2 and on JAK1 were 5.8 nM and 0.91 nM, respectively.

`CC(C)NS(=O)(=O)c1ccc(Nc2nn([C@H]3CCCC[C@@H]3C#N)c3cc[nH]c(=O)c23)cc1` [Example 3-18, 4-({1-[(1S,2S)-2-cyanocyclohexyl]-4-oxo-4,5-dihydro-1H-pyrazolo[4,3-c]pyridin-3-yl}amino)-N-(1-methylethyl)benzenesulfonamide]: the IC50 was 0.37 nM at JAK2 and 0.12 nM on JAK1.

For the molecule `N#C[C@H]1CCCC[C@@H]1n1nc(Nc2ccc(S(=O)(=O)NCc3ccccc3)cc2)c2c(=O)[nH]ccc21` [Example 3-19, N-benzyl-4-({1-[(1S,2S)-2-cyanocyclohexyl]-4-oxo-4,5-dihydro-1H-pyrazolo[4,3-c]pyridin-3-yl}amino)benzenesulfonamide], the IC50 on JAK2 was 1.2 nM; at JAK1 it was 0.21 nM.

`N#C[C@H]1CCCC[C@@H]1n1nc(Nc2ccc(S(=O)(=O)NCC3CC3)cc2)c2c(=O)[nH]ccc21` [Example 3-20, 4-({1-[(1S,2S)-2-cyanocyclohexyl]-4-oxo-4,5-dihydro-1H-pyrazolo[4,3-c]pyridin-3-yl}amino)-N-(cyclopropylmethyl)benzene-sulfonamide]: the results for the IC50 on JAK2 and on JAK1 were 0.6 nM and 0.13 nM, respectively.

For the molecule `COCCNS(=O)(=O)c1ccc(Nc2nn([C@H]3CCCC[C@@H]3C#N)c3cc[nH]c(=O)c23)cc1` [Example 3-21, 4-({1-[(1S,2S)-2-cyanocyclohexyl]-4-oxo-4,5-dihydro-1H-pyrazolo[4,3-c]pyridin-3-yl}amino)-N-(2-methoxyethyl)benzenesulfon-amide], the results for the IC50 on JAK2 and on JAK1 were 0.79 nM and 0.17 nM, respectively.

For the molecule `N#C[C@H]1CCCC[C@@H]1n1nc(Nc2ccc(S(=O)(=O)NC3CCCCC3)cc2)c2c(=O)[nH]ccc21` [Example 3-22, 4-({1-[(1S,2S)-2-cyanocyclohexyl]-4-oxo-4,5-dihydro-1H-pyrazolo[4,3-c]pyridin-3-yl}amino)-N-cyclohexylbenzenesulfonamide], the figures for the IC50 at JAK2 and at JAK1 were 1.2 nM and 0.4 nM, respectively.

Consider `N#C[C@H]1CCCC[C@@H]1n1nc(Nc2ccc(S(=O)(=O)N3CCCCC3)cc2)c2c(=O)[nH]ccc21` [Example 3-23, (1S,2S)-2-(4-oxo-3-{[4-(piperidin-1-ylsulfonyl)phenyl]amino}-4,5-dihydro-1H-pyrazolo[4,3-c]pyridin-1-yl)cyclohexanecarbonitrile], for which the concentration for half-maximal inhibition (IC50) at JAK2 was 0.48 nM; on JAK1 it was 0.31 nM.

On to `N#C[C@H]1CCCC[C@@H]1n1nc(Nc2ccc(S(=O)(=O)N3CCOCC3)cc2)c2c(=O)[nH]ccc21` [Example 3-24, (1S,2S)-2-(3-{[4-(morpholin-4-ylsulfonyl)phenyl]amino}-4-oxo-4,5-dihydro-1H-pyrazolo[4,3-c]pyridin-1-yl)cyclohexanecarbonitrile], for which the IC50 on JAK2 came out at 0.47 nM; at JAK1 it was 0.15 nM.

Turning to `N#C[C@H]1CCCC[C@@H]1n1nc(Nc2ccccc2)c2c(=O)[nH]ccc21` [Example 3-25, (1S,2S)-2-[4-oxo-3-(phenylamino)-4,5-dihydro-1H-pyrazolo[4,3-c]pyridin-1-yl]cyclohexanecarbonitrile], the IC50 on JAK2 came out at 3.2 nM; at JAK1, 0.45 nM.

`N#C[C@H]1CCCC[C@@H]1n1nc(Nc2cccc(Cn3ccnn3)c2)c2c(=O)[nH]ccc21` [Example 3-26, (1S,2S)-2-(4-oxo-3-{[3-(1H-1,2,3-triazol-1-ylmethyl)phenyl]amino}-4,5-dihydro-1H-pyrazolo[4,3-c]pyridin-1-yl)cyclohexanecarbonitrile]: the IC50 on JAK2 turned out to be 0.49 nM; on JAK1 it was 0.1 nM.

Regarding `Cc1cc(Nc2nn([C@H]3CCCC[C@@H]3C#N)c3cc[nH]c(=O)c23)ccc1C(=O)N1CCCC1` [Example 3-27, (1S,2S)-2-(3-{[3-methyl-4-(pyrrolidin-1-ylcarbonyl)phenyl]amino}-4-oxo-4,5-dihydro-1H-pyrazolo[4,3-c]pyridin-1-yl)cyclohexanecarbonitrile], the IC50 is 0.2 nM at JAK2 and 0.13 nM at JAK1.

With `N#C[C@H]1CCCC[C@@H]1n1nc(Nc2cccc(Cn3nccn3)c2)c2c(=O)[nH]ccc21` [Example 3-28, (1S,2S)-2-(4-oxo-3-{[3-(2H-1,2,3-triazol-2-ylmethyl)phenyl]amino}-4,5-dihydro-1H-pyrazolo[4,3-c]pyridin-1-yl)cyclohexanecarbonitrile], the IC50 on JAK2 was determined as 0.93 nM; on JAK1, 1 nM.

One may read the IC50 as the concentration at which inhibition is half-maximal.
